From US9849116B2 (KNOPP BIOSCIENCES LLC, priority 2008, dated 2017)
Where “and” joins values, the source holds several entries; their conditions need not be identical. Equal values may be shown once. Read-outs that look alike come from different tables or passages of the source.

Columns and labels:
[1] = molecular target: D1 dopamine receptor (Homo sapiens, UniProt P21728)
Protocol: (§1) These concentrations were tested in cell lines expressing select human cloned dopamine receptors (D2S, D3).

[2] = molecular target: D5 dopamine receptor (Homo sapiens, UniProt P21918)
D5 dopamine receptor, sequence (P21918 whole entry): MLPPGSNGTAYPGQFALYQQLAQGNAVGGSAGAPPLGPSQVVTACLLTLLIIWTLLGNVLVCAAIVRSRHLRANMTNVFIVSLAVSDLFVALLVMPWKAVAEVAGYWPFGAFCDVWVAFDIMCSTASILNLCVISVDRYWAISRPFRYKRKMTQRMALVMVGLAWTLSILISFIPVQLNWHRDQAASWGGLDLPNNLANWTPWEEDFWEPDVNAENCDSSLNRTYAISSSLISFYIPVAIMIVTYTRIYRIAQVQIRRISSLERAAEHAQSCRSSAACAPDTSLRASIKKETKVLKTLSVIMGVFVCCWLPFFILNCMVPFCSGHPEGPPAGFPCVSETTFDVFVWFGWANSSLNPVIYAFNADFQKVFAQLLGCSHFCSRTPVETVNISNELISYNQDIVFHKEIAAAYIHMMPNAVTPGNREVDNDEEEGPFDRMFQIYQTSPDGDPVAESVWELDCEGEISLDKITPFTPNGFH
Protocol: as §1

[3] = in vivo; details: both, rat, in vivo
Protocol: (§2) Following this study, 3- and 6-month repeat dose toxicology studies were completed at doses of 30, 100, and 300 mg/kg.

[4] = test system: rats; assay: in vivo
Protocol: as §2

[5] = clinical; details: human; for AUC(0-t): AUC(0-t) (mean ± SD); for Vd/F: Vz/F (mean ± SD); for CL renal: plasma and urine
Protocol: (§3) Safety observations included vital signs, physical examination, clinical laboratory tests, ECGs, and adverse event reporting. Blood and urine samples were collected pre-dose and for 72 hours post-dose to assess the pharmacokinetics.

[6] = test system: healthy volunteers; assay: clinical
Protocol: as §3

[7] = test system: male beagle dogs
Protocol: (§4) Three groups of four non-naïve male beagle dogs were used in the study. […] Doses were administered orally by gavage and clinical observations were taken continuously following dosing: hourly for the first four hours, and then twice daily cage-side observations for the duration of the inter-dose or post-dose interval. Observations were made of clinical signs, mortality, injury and availability of food and water. Animals were fasted for 24 hr prior to dosing. Dogs in each group were exposed to only one drug, or the combination; each dose was administered only once, with a subsequent dose administered after a recovery period of 4 days.

[8] = test system: rats; details: 6 months, 30, 100, 300 mg/kg
[9] = test system: minipigs
[10] = test system: minipigs; details: 6 months
[11] = test system: minipigs; details: ongoing 9-month study past month 7
[12] = test system: healthy volunteers
Protocol: (§5) The first panel was administered a singe dose of 50 mg, followed 48 hours later by 4½ days of multiple dosing (twice daily) at 50 mg Q12 hours. The second panel was administered a singe dose of 100 mg, followed 48 hours later by 4½ days of multiple dosing (twice daily) at 100 mg Q12 hours. Safety observations included vital signs, physical examination, clinical laboratory tests, ECGs, and adverse event reporting. Blood samples were collected pre-dose on Day 1 and serially for 48 hours post-dose to assess the single-dose pharmacokinetics.

[13] = in vivo; details: male, dog, po
Protocol: as §4

[14] = in vivo; details: both, minipig
[15] = in vivo; details: both, minipig; remark: listed apart in the source
[16] = clinical; details: human, plasma
Protocol: as §5

[17] = plasma, po, 50 mg, single 50 mg oral dose, fasted
[18] = plasma, po, 150 mg, single 150 mg oral dose, fasted
[19] = plasma, po, 150 mg, single 150 mg oral dose, fed
[20] = plasma, po, 300 mg, single 300 mg oral dose, fasted
[21] = single 150 mg oral dose, fasted
[22] = single 300 mg oral dose, fasted
[23] = Day 1, 100 mg oral dose, fasted
[24] = Day 7, 50 mg Q12H on Days 3 through 6 and a single dose on Day 7, fasted
[25] = Day 7, 100 mg Q12H on Days 3 through 6 and a single dose on Day 7, fasted

D1 dopamine receptor, sequence (P21728 whole entry): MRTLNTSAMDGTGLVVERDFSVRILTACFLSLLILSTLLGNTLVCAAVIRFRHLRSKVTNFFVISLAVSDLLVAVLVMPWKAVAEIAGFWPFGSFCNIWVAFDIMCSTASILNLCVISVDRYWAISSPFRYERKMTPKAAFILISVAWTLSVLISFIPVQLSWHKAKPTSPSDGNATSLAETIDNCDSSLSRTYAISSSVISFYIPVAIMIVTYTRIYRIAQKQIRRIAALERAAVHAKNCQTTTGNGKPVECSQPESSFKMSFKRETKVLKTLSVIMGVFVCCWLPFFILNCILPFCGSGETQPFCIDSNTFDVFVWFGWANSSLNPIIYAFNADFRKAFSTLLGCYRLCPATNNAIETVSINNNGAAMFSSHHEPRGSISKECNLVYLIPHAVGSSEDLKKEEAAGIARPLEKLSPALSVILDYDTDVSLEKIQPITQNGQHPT

## CCCN[C@@H]1CCc2nc(N)sc2C1 [(R)-pramipexole, (6R)-4,5,6,7-tetrahydro-N6-propyl-2,6-benzothiazole-diamine]
[1]
  interaction with D1 dopamine receptor: no significant interaction
[2]
  interaction with D5 dopamine receptor: no significant interaction
[3]
  NOAEL at 3 months: 100 mg/kg
  NOAEL at 14 days: 150 mg/kg
[4]; rat, in vivo, 300 mg/kg
  target organ toxicity by histopathology examination: some target organ toxicity
[4]; rats, 3 months, 30, 100, 300 mg/kg
  test article related deaths: no test article related deaths
[4]; rats, high dose 500 mg/kg, 14 days
  mortality: caused mortality
[5]; blood, po, 50 mg, single 50 mg oral dose, fasted
  AUC(0-t): 989 ng·h/mL
[5]; blood, po, 50 mg, AUC(inf) (mean ± SD), single 50 mg oral dose, fasted
  AUC(0-inf): 1240 ng·h/mL
[5]; blood, po, 150 mg, single 150 mg oral dose, fasted
  AUC(0-t): 3390 ng·h/mL
[5]; blood, po, 150 mg, AUC(inf) (mean ± SD), single 150 mg oral dose, fasted
  AUC(0-inf): 3820 ng·h/mL
[5]; blood, po, 300 mg, single 300 mg oral dose, fasted
  AUC(0-t): 8340 ng·h/mL
[5]; in vivo, oral, 150 mg
  Cmax: 315 ± 62 ng/mL
  Tmax: 2.58 h
[5]; in vivo, oral, 150 mg, AUC (inf) (mean ± SD), CL001, 150 mg SD, second 150 mg line, Food printed Fasted
  AUC(0-inf): 3400 ng·h/mL
[5]; in vivo, oral, 150 mg, CL001, 150 mg SD, second 150 mg line, Food printed Fasted
  AUC(0-t): 3100 ng·h/mL
[5]; in vivo, oral, 150 mg, 150 mg SD, second 150 mg line, Food printed Fasted
  Vd/F: 406 ± 62.8 L
[5]; in vivo, po, 300 mg, AUC(inf) (mean ± SD), single 300 mg oral dose, fasted
  AUC(0-inf): 8620 ng·h/mL
[5]; po, 50 mg
  CL renal: 628 ± 149 mL/min
[5]; po, 150 mg
  CL renal: 310 ± 74.3 mL/min
[5]; po, 300 mg
  CL renal: 441 ± 159 mL/min
[5]; [17]
  AUC(0-t): 989 ± 295 ng·h/mL
  Vd/F: 395 ± 61.9 L
[5]; plasma, po, 50 mg, AUC(inf) (mean ± SD), single 50 mg oral dose, fasted
  AUC(0-inf): 1250 ng·h/mL
[5]; plasma, po, 50 mg, mean exposure (AUC0-∞), single oral 50 mg, fasted
  AUC(0-inf): 1250 ng·h/mL
[5]; plasma, po, 150 mg
  Cmax: 360 ng/mL
[5]; [18]
  AUC(0-t): 3390 ng·h/mL
  Vd/F: 411 ± 81 L
[5]; [19]
  AUC(0-t): 3100 ng·h/mL
  Vd/F: 406 ± 62.8 L
[5]; plasma, po, 150 mg, AUC(inf) (mean ± SD), single 150 mg oral dose, fasted
  AUC(0-inf): 3820 ng·h/mL
[5]; plasma, po, 150 mg, AUC(inf) (mean ± SD), single 150 mg oral dose, fed
  AUC(0-inf): 3400 ng·h/mL
[5]; plasma, po, 150 mg, mean exposure (AUC0-∞), single oral 150 mg, fasted
  AUC(0-inf): 3820 ng·h/mL
[5]; plasma, po, 300 mg
  Cmax: 781 ng/mL
  Tmax: 1.96 h
[5]; [20]
  AUC(0-t): 8340 ng·h/mL
  Vd/F: 346 ± 98.5 L
[5]; plasma, po, 300 mg, AUC(inf) (mean ± SD), single 300 mg oral dose, fasted
  AUC(0-inf): 8620 ng·h/mL
[5]; plasma, po, 300 mg, mean exposure (AUC0-∞), single oral 300 mg, fasted
  AUC(0-inf): 8620 ng·h/mL
[6]; 50 mg SD, Fasted
  CL/F (mean ± SD): 706 ± 182 mL/h
[6]; 150 mg SD, Fasted
  CL/F (mean ± SD): 692 ± 183 mL/h
[6]; 150 mg SD, second 150 mg line, Food printed Fasted
  CL/F (mean ± SD): 774 ± 165 mL/h
[6]; 300 mg SD, Fasted
  CL/F (mean ± SD): 659 ± 260 mL/h
[6]; across dose levels
  urinary excretion of unchanged drug, share of drug elimination: approximately 70%
[6]; single 50 mg oral dose, fasted
  CL/F (mean ± SD): 42400 ± 10900 mL/h
  Fe (mean ± SD): 70.7 ± 10.4 % Dose
  Ue (mean ± SD): 35.3 ± 5.19 mg and 35.3 ± 5.19 ^ mg
  λz (mean ± SD): 0.1064 ± 0.0171 h⁻¹
[6]; [21]
  CL/F (mean ± SD): 41500 ± 11000 mL/h
  Fe (mean ± SD): 40.3 ± 4.69 % Dose
  Ue (mean ± SD): 60.5 ± 7.04 mg and 60.5 ± 7.04 ^ mg
  λz (mean ± SD): 0.1001 ± 0.0087 h⁻¹
[6]; single 150 mg oral dose, fed
  CL/F (mean ± SD): 46400 ± 9900 mL/h
  λz (mean ± SD): 0.1152 ± 0.0256 h⁻¹
[6]; single 150 mg, fed versus fasted
  effect of a high fat/high calorie meal on absorption and elimination: essentially no effect
[6]; [22]
  CL/F (mean ± SD): 39500 ± 15600 mL/h
  Fe (mean ± SD): 65.8 ± 9.33 % Dose
  Ue (mean ± SD): 198 ± 28.0 mg and 198 ± 28.0 ^ mg
  λz (mean ± SD): 0.1151 ± 0.0309 h⁻¹
[6]; single oral 50, 150, 300 mg
  time of maximum concentration post-dose: approximately 2 hours
[6]; single oral doses of 50, 150, 300 mg
  safety and tolerability: safe and well-tolerated
[7]; based on dog data, 70 kg human subject
  human equivalence dose of the MTD: about 3,000 mg
[7]; dog, in vivo
  observable effects in dogs: no observable effects
[7]; male, beagle, dog, in vivo, 4 days
  functional separation between the (S)- and (R)-enantiomers: 10,000-20,000 fold
[8]
  mortality between the 13-week and 26-week sacrifices: no mortalities at any dose level
[9]; both, minipig, in vivo, 75 mg/kg, 14 days
  incidence of emesis (at least one episode): 5 of 8
[9]; minipigs, 2 weeks (14 days)
  NOAEL: greater than or equal to 75 mg/kg
[10]
  mortality and clinical observations between the 13-week and 26-week sacrifices: no mortalities attributed to test article or significant clinical observations
[11]
  deaths and clinical observations: no deaths attributed to test article or significant clinical observations
[12]; 50 mg Q12H
  increase of AUC(0-12) from Day 1 to Day 7: 40%
  increase of Cmax from Day 1 to Day 7: 37%
[12]; 50 mg Q12H (Day 1), Fasted
  CL/F (mean ± SD): 571 ± 107 mL/h
[12]; 50 mg Q12H (Day 7), Fasted
  CL/F (mean ± SD): 585 ± 81.6 mL/h
[12]; 100 mg Q12H
  increase of AUC(0-12) from Day 1 to Day 7: 38%
  increase of Cmax from Day 1 to Day 7: 24%
[12]; 100 mg Q12H (Day 1), Fasted
  CL/F (mean ± SD): 665 ± 107 mL/h
[12]; 100 mg Q12H (Day 7), Fasted
  CL/F (mean ± SD): 684 ± 76.1 mL/h
[12]; Day 1, 50 mg oral dose, fasted
  AUC(0−12) (mean ± SD): 1,035 ± 121 h · ng/mL
  AUC(0−t) (mean ± SD): 1,463 ± 280 h · ng/mL
  AUC(inf) (mean ± SD): 1,502 ± 280 h · ng/mL
  CL/F (mean ± SD): 34300 ± 6420 mL/h
  λz (mean ± SD): 0.1132 ± 0.0230 h⁻¹
[12]; [23]
  AUC(0−12) (mean ± SD): 1,776 ± 260 h · ng/mL
  AUC(0−t) (mean ± SD): 2,545 ± 497 h · ng/mL
  CL/F (mean ± SD): 39900 ± 6420 mL/h
  λz (mean ± SD): 0.1073 ± 0.0161 h⁻¹
[12]; [24]
  AUC(0-12) (mean ± SD): 1,449 ± 221 h · ng/mL
  CL/F (mean ± SD): 35100 ± 4900 mL/h
  λz (mean ± SD): 0.1025 ± 0.0186 h⁻¹
[12]; [25]
  AUC(0-12) (mean ± SD): 2,465 ± 299 h · ng/mL
  CL/F (mean ± SD): 41000 ± 4570 mL/h
  λz (mean ± SD): 0.0894 ± 0.0117 h⁻¹
[12]; humans, total daily dose 500 mg as 250 mg Q12H
  projected steady-state exposure (AUC): approximately 7,000 h*ng/mL
[12]; multiple oral doses of 50 and 100 mg twice daily
  safety and tolerability: safe and well-tolerated
[13]
  MTD at 4 days: 75 mg/kg
  NOAEL at 4 days: 25 mg/kg
[14]
  NOAEL at 14 days: 75 mg/kg
[15]
  NOAEL at 3 months: 50 mg/kg
[16]; oral, 50 mg
  Cmax: 191 ± 20.9 ng/mL
  Tmax: 1.75 h
  Vd/F: 346 ± 30.1 L
[16]; oral, 50 mg, AUC(0-12) (mean ± SD), Day 7, 50 mg Q12H on Days 3 through 6 and a single dose on Day 7, fasted
  AUC(0-t): 1450 ng·h/mL
[16]; oral, 50 mg, mean exposure AUC(0-12) at Day 7, 50 mg Q12H
  AUC(0-t): 1450 ng·h/mL
[16]; oral, 100 mg
  Cmax: 306 ± 55 ng/mL
  Tmax: 2 h
[16]; oral, 100 mg, AUC(0-12) (mean ± SD), Day 7, 100 mg Q12H on Days 3 through 6 and a single dose on Day 7, fasted
  AUC(0-t): 2460 ng·h/mL
[16]; oral, 100 mg, mean exposure AUC(0-12) at Day 7, 100 mg Q12H
  AUC(0-t): 2460 ng·h/mL
[16]; po, 50 mg
  AUC(0-inf): 1500 ng·h/mL
  Tmax: 1.83 h
  Vd/F: 306 ± 45.8 L
[16]; po, 50 mg, AUC(0−12) (mean ± SD), Day 1, 50 mg oral dose, fasted
  AUC(0-t): 1040 ng·h/mL
[16]; po, 50 mg, AUC(0−t) (mean ± SD), Day 1, 50 mg oral dose, fasted
  AUC(0-t): 1460 ng·h/mL
[16]; po, 100 mg
  AUC(0-inf): 2570 ng·h/mL
  Cmax: 248 ± 30.4 ng/mL
  Tmax: 1.92 h
  Vd/F: 373 ± 51 L
[16]; po, 100 mg, AUC(0−12) (mean ± SD), Day 1, 100 mg oral dose, fasted
  AUC(0-t): 1780 ng·h/mL
[16]; po, 100 mg, AUC(0−t) (mean ± SD), Day 1, 100 mg oral dose, fasted
  AUC(0-t): 2540 ng·h/mL
